From ChEMBL document CHEMBL5226308, “Amide-Amine Replacement in Indole-2-carboxamides Yields Potent Mycobactericidal Agents with Improved Water Solubility” (ACS Med Chem Lett, 2021)
Active and inactive are the calls of the source. The rule behind the calls is not given here.

Legend:
[1] = system: Mycobacterium tuberculosis variant bovis; experiment: Inhibition of MmpL3 in Mycobacterium bovis BCG ATCC 35734 assessed as increase in TMM level at 1XMIC90 treated for 1 hr followed by incubation with [14C]acetate for 1 to 3 hrs by thin layer chromatography; settings: time 2-4 hrs, TDE = time-dependent effect
[2] = system: Mycobacterium tuberculosis variant bovis; experiment: Inhibition of MmpL3 C1932G/F644L mutant in Mycobacterium bovis BCG B47-4 assessed as increase in TMM level at 1XMIC90 treated for 1 hr followed by incubation with [14C]acetate for 1 to 3 hrs by thin layer chromatography; settings: time 2-4 hrs
[3] = system: Mycobacterium tuberculosis variant bovis; experiment: Inhibition of MmpL3 C1932G/F644L mutant in Mycobacterium bovis BCG B47-4 assessed as reduction in TDM level at 1XMIC90 treated for 1 hr followed by incubation with [14C]acetate for 1 to 3 hrs by thin layer chromatography; settings: time 2-4 hrs
[4] = system: Mycobacterium tuberculosis variant bovis; experiment: Inhibition of MmpL3 in Mycobacterium bovis BCG ATCC 35734 assessed as reduction in TDM level at 1XMIC90 treated for 1 hr followed by incubation with [14C]acetate for 1 to 3 hrs by thin layer chromatography; settings: time 2-4 hrs, TDE = time-dependent effect
[5] = system: Mycobacterium tuberculosis variant bovis; experiment: Inhibition of MmpL3 in Mycobacterium bovis BCG ATCC 35734 assessed as reduction in TDM level at 4XMIC90 treated for 1 hr followed by incubation with [14C]acetate for 1 to 3 hrs by thin layer chromatography; settings: time 2-4 hrs
[6] = system: Mycobacterium tuberculosis variant bovis; experiment: Inhibition of MmpL3 in Mycobacterium bovis BCG ATCC 35734 assessed as increase in TMM level at 4XMIC90 treated for 1 hr followed by incubation with [14C]acetate for 1 to 3 hrs by thin layer chromatography; settings: time 2-4 hrs

Row | SMILES | inhibition [1] | inhibition [2] | inhibition [3] | inhibition [4] | inhibition [5] | inhibition [6]
1 | FC(F)(F)c1ccc2cc(CNC3CCCCCCC3)[nH]c2c1 | Tde | inactive | inactive | Tde |  | 
2 | O=C(NC1CCCCCCC1)c1cc2ccccc2s1 |  | inactive | inactive |  |  | 
3 | O=C(NC1CCCCCCC1)c1cc2ccc(C(F)(F)F)cc2[nH]1 | Tde | inactive | inactive | Tde |  | 
4 | Cc1c(CN2CCN(C)CC2)cc(-c2ccc(Cl)cc2)n1-c1ccc(Cl)cc1 | Tde | inactive | inactive | Tde |  | 
5 | O=C(NC1CCCCCCC1)c1cc2ccccc2[se]1 |  | inactive | inactive |  |  | 
6 | c1ccc2sc(CNC3CCCCCCC3)cc2c1 | Tde | inactive | inactive | Tde |  | 
7 | c1ccc2[se]c(CNC3CCCCCCC3)cc2c1 |  | inactive | inactive |  |  | 
8 | CC[C@@H](CO)NCCN[C@@H](CC)CO |  |  |  |  | inactive | inactive
